# Publication PMC8576818, “The ethoxycarbonyl group as both activating and protective group in N-acyl-Pictet–Spengler reactions using methoxystyrenes. A short approach to racemic 1-benzyltetrahydroisoquinoline alkaloids” (Beilstein Journal of Organic Chemistry, 2021)
# Legend:
# [1] = target: T1, two-pore channel 2 (TPC2) (Homo sapiens, UniProt Q8NHX9, L11A/L12A); assay: fluo-4 Ca2+ FLIPR assay in HEK293 cells stably expressing hTPC2, stimulated with TPC2-A1-P or TPC2-A1-N; assay type: cell-based
# T1 construct: gene TPCN2; human TPC2, C-terminally RFP-tagged, rerouted to the plasma membrane (hTPC2L11A/L12A)
# [2] = target: T2, P-glycoprotein (P-gp) (Homo sapiens, UniProt P08183); assay: calcein-AM retention by flow cytometry in VCR-R CEM cells at […]; assay type: cell-based
# T2 construct: gene ABCB1; P-glycoprotein overexpressing VCR-R CEM cells
# T2 sequence (P08183 whole entry): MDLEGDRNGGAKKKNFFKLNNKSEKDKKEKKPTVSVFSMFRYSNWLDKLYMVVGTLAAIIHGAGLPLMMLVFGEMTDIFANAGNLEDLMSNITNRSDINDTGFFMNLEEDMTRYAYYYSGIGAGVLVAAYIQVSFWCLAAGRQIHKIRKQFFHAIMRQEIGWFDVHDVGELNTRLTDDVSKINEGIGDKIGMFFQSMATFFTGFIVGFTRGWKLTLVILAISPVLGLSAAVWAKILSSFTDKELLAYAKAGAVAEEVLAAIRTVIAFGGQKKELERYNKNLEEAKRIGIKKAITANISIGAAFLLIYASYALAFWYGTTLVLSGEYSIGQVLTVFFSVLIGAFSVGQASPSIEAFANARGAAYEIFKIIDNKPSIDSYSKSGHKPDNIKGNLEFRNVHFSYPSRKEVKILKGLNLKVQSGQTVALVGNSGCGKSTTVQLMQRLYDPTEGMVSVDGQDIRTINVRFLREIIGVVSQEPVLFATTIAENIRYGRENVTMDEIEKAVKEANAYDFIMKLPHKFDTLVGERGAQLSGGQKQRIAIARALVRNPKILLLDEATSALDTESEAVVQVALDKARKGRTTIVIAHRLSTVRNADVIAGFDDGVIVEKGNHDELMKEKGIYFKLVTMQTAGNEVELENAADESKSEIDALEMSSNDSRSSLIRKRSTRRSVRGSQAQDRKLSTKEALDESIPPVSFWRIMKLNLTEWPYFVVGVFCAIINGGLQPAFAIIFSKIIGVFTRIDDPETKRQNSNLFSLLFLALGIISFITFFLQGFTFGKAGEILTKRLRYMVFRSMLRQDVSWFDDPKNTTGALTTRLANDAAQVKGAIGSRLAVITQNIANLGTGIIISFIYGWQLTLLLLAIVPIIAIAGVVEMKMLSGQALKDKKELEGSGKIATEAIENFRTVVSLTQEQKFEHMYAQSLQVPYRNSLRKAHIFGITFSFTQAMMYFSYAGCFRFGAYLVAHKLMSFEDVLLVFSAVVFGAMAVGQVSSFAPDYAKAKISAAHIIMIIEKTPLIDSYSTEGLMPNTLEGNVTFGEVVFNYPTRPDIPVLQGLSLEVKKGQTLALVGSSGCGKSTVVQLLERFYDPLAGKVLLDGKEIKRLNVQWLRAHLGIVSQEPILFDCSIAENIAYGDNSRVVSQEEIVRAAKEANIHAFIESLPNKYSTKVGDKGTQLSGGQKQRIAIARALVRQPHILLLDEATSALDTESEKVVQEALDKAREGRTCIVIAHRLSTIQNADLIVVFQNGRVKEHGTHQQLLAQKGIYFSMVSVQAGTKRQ
# T1 sequence (Q8NHX9 whole entry L11A/L12A): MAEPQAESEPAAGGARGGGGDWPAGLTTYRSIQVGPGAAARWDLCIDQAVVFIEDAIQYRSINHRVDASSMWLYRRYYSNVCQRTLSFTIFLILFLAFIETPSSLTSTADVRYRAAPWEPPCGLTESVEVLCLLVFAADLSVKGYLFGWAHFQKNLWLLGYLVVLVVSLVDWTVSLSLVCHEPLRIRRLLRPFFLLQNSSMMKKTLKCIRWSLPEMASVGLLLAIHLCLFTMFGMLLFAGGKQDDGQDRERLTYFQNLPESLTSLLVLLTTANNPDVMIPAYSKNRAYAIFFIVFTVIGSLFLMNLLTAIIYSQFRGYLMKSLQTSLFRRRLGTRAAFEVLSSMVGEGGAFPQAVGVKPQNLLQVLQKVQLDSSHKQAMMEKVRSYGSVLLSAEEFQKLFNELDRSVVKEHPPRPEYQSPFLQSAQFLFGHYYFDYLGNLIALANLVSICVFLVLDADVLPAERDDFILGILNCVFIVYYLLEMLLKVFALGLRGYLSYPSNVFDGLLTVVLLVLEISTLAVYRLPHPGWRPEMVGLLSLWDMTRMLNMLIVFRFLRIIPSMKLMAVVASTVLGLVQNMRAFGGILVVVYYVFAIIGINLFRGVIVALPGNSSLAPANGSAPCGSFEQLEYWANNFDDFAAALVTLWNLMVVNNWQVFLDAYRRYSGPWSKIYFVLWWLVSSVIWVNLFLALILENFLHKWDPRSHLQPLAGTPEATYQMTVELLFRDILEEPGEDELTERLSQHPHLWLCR
SMILES,IC50 [1],calcein-AM retention by flow cytometry in VCR-R CEM cells at 10 μM [2]
COc1ccc2cc1Oc1ccc(cc1)C[C@H]1c3c(cc4c(c3Oc3cc5c(cc3OC)CCN(C)[C@@H]5C2)OCO4)CCN1C [cepharanthine],3.6/57 µM,
COc1ccc2cc1Oc1ccc(cc1)C[C@H]1c3cc(c(OC)cc3CCN1C)Oc1c(OC)c(OC)cc3c1[C@H](C2)N(C)CC3 [tetrandrine],31/21 µM,indicating no P-glycoprotein inhibition. Tetrandrine served as positive control (Figure 5C).
